Measured values as given in patent publication US12497394B2, “Fused-cyclic pyrazolone formamide compound and preparation method therefor, pharmaceutical composition and use thereof” (SHANGHAI INSTITUTE OF MATERIA MEDICA, CHINESE ACADEMY OF …, priority 2018, dated 2025).
Several values for one entry are separate records, joined by “and”; a condition that tells them apart may be missing. Equal values may be shown once.

Key:
Assay type in all cases: biochemical
369 kinases = test: Selectivity of the kinase profile (369 kinases); settings: 369 kinases screened
Description: (§1) Experimental Example 2: Study on the Selectivity of the Kinase Profile of the Compound Due to compound's potent inhibitory activity against AXL, we selected one of the compounds, DC621044, to screen 369 kinase profiles in order to investigate the compound's selectivity to the kinase profile.

EPHA6 = EPHA6 (Homo sapiens, UniProt Q9UF33); test: Kinase profile screen: EPHA6; settings: 50 nM
Chain of EPHA6 (Q9UF33 23-1036, species assumed): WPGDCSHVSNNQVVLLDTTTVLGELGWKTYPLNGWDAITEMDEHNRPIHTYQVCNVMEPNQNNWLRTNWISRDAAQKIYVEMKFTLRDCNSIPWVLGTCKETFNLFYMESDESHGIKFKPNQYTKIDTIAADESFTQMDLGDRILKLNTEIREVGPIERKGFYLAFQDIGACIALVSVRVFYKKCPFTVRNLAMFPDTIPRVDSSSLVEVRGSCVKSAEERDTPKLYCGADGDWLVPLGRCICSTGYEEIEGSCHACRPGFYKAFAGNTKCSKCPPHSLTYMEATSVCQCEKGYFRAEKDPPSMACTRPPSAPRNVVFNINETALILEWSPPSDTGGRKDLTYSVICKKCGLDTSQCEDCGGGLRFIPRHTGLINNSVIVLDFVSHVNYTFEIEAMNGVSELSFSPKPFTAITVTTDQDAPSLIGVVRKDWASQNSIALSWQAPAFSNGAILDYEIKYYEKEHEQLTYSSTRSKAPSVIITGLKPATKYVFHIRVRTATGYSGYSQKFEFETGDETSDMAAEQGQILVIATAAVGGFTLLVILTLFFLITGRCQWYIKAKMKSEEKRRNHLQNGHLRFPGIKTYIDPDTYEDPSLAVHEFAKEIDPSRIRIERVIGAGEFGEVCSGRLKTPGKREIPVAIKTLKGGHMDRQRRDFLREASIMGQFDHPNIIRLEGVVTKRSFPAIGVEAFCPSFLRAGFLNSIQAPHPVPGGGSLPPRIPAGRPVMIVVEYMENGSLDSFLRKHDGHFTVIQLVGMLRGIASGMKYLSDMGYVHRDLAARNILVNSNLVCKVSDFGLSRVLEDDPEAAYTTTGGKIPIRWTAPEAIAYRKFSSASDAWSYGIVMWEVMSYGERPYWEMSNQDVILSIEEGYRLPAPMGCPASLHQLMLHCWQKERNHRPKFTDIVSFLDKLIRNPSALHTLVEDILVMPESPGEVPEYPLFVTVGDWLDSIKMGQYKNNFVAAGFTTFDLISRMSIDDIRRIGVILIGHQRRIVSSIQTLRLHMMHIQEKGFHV
Description: as §1

FLT3 = FLT3 (Homo sapiens, UniProt P36888); test: Kinase profile screen: FLT3; settings: 50 nM
Description: as §1

BLK = BLK (Homo sapiens, UniProt P51451); test: Kinase profile screen: BLK; settings: 50 nM
Description: as §1

RON/MSTIR = RON/MSTIR (Homo sapiens, UniProt Q04912); test: Kinase profile screen: RON/MSTIR; settings: 50 nM
Chain of RON/MSTIR (Q04912 25-1400): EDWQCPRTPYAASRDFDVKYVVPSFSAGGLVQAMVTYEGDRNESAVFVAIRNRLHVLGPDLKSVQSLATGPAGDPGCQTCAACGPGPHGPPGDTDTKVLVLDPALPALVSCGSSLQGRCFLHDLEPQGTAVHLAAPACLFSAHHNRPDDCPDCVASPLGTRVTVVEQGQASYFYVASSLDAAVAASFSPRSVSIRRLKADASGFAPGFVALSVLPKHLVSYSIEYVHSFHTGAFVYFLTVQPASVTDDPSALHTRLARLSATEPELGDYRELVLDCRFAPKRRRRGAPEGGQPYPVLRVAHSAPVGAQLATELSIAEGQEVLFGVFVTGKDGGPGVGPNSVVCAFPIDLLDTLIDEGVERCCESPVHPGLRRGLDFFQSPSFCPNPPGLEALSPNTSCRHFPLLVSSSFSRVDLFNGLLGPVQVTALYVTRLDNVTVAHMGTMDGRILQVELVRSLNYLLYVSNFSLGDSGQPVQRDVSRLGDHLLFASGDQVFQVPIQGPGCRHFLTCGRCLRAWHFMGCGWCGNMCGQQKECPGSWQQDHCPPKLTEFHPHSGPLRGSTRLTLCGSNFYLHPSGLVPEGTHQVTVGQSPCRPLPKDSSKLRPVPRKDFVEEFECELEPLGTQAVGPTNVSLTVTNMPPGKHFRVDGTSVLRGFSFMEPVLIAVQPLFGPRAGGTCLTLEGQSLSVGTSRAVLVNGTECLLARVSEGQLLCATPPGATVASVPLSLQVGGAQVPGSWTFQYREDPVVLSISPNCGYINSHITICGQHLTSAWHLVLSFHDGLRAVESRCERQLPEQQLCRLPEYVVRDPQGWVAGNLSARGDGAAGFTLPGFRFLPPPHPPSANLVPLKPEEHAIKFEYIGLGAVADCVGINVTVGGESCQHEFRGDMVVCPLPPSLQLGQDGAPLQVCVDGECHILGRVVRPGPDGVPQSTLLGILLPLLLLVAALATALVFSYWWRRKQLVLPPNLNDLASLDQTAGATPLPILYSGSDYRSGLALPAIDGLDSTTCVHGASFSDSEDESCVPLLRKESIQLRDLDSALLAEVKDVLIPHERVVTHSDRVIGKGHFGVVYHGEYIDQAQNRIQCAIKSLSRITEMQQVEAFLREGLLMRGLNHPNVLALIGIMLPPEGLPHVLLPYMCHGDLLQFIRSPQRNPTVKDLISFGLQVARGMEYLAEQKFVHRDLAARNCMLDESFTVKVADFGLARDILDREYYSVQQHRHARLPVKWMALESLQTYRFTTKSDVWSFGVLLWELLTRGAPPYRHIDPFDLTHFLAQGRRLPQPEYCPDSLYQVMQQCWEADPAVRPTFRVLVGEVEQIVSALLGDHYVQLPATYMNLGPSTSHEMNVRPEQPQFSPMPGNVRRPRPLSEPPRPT
Description: as §1

[1] = target: receptor tyrosine kinase c-Met (Homo sapiens, UniProt P08581); test: In vitro c-Met kinase inhibitory activity; settings: two values per compound
Chain of receptor tyrosine kinase c-Met (P08581 25-1390): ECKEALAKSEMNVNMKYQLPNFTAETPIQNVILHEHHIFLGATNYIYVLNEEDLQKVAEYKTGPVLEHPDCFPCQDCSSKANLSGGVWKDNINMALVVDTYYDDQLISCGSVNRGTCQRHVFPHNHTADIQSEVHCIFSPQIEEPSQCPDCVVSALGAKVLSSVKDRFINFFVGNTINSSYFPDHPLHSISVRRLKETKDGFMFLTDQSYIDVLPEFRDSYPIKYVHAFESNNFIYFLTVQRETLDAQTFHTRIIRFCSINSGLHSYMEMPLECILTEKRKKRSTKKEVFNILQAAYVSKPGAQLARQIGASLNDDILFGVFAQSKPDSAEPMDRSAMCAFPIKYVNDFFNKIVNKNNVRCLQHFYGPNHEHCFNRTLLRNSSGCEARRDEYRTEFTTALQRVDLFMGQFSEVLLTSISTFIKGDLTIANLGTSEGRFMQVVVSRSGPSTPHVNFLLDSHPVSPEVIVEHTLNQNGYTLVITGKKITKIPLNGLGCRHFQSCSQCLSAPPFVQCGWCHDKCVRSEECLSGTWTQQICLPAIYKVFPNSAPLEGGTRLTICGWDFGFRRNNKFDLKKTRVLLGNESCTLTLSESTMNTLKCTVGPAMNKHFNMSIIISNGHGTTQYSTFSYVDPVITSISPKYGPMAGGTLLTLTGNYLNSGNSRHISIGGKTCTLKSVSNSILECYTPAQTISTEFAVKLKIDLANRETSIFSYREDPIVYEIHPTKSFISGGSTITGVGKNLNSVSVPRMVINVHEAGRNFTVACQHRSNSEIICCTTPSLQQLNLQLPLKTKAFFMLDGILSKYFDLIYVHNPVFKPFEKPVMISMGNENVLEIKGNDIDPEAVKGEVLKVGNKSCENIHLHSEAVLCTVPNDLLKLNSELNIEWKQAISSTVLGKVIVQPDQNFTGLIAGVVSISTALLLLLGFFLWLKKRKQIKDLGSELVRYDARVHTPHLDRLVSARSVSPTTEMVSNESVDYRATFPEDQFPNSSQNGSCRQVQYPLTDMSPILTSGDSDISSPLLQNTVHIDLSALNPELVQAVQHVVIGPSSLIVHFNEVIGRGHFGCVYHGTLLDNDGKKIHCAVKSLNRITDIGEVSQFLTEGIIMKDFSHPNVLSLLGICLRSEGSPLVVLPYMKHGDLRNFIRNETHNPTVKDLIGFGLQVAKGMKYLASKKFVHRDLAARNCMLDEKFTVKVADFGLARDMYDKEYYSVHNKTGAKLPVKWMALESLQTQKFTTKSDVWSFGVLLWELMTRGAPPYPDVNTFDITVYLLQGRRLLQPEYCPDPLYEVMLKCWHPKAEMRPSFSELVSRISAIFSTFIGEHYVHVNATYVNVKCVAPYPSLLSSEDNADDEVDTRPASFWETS
Description: Experimental Example 3: Study of In Vitro c-Met Kinase Inhibitory Activity
Since the screening results of 369 kinase profiles of compound DC621044 has shown that the compound has a certain inhibitory activity on c-Met. We further screened some compounds for their inhibitory activity on c-Met kinase.

FRK/PTK5 = FRK/PTK5 (Homo sapiens, UniProt P42685); test: Kinase profile screen: FRK/PTK5; settings: 50 nM
Description: as §1

EGFR = EGFR (Homo sapiens, UniProt P00533); test: Kinase profile screen: EGFR; settings: 50 nM
Description: as §1

PLK4/SAK = PLK4/SAK (Homo sapiens, UniProt O00444); test: Kinase profile screen: PLK4/SAK; settings: 50 nM
Chain of PLK4/SAK (O00444 whole entry): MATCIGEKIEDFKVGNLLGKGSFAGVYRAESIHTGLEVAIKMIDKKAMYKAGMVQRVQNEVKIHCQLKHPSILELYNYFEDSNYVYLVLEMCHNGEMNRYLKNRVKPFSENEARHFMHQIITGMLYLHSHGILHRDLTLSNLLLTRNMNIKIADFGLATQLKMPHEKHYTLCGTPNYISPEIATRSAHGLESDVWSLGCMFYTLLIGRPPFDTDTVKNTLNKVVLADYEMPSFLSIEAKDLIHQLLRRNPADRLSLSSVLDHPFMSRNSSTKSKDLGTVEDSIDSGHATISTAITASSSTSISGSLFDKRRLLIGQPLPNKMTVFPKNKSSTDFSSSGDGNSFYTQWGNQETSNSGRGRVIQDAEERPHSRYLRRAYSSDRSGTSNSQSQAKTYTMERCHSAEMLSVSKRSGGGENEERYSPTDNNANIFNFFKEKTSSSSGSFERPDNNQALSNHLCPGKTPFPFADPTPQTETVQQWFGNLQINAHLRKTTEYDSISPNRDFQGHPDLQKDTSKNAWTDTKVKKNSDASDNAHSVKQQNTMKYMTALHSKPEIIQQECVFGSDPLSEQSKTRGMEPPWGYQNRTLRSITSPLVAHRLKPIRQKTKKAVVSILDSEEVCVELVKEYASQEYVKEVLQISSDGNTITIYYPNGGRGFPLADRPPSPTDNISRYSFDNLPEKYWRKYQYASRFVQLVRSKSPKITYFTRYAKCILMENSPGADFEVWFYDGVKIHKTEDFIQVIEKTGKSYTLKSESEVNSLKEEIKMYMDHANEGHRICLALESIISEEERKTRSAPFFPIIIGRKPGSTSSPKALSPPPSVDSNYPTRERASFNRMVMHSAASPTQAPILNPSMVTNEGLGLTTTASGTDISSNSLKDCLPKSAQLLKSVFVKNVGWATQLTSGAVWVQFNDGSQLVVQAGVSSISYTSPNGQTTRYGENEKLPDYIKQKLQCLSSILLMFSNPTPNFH
Description: as §1

kinase profile selectivity (in words) (369 kinases): good selectivity for AXL kinase | inhibition at 0.05 µM (EPHA6; the first time): 57.3% | inhibition at 0.05 µM (EPHA6; the second time): 57.8% | inhibition at 0.05 µM (FLT3; the first time): 28% | inhibition at 0.05 µM (FLT3; the second time): 29.3% | inhibition at 0.05 µM (BLK; the first time): 29.5% | inhibition at 0.05 µM (BLK; the second time): 29.9% | inhibition at 0.05 µM (RON/MSTIR; the first time): 25.9% | inhibition at 0.05 µM (RON/MSTIR; the second time): 27.2% | c-Met Inhibitory rate (%) ([1]; 1 nM, 0.001 µM): 30.6% and 52.3% | c-Met Inhibitory rate (%) ([1]; 10 nM, 0.01 µM): 75.1% | inhibition at 0.01 µM ([1]; 10 nM, read-out: c-Met Inhibitory rate (%)): 69.4% | c-Met Inhibitory rate (%) ([1]; 100 nM, 0.1 µM): 100% | inhibition at 0.1 µM ([1]; 100 nM, read-out: c-Met Inhibitory rate (%)): 97.1% | inhibition at 0.05 µM (FRK/PTK5; the first time): 17.1% | inhibition at 0.05 µM (FRK/PTK5; the second time): 17.7% | inhibition at 0.05 µM (EGFR; the first time): 17.9% | inhibition at 0.05 µM (EGFR; the second time): 18.6% | inhibition at 0.05 µM (PLK4/SAK; the first time): 27.2% | inhibition at 0.05 µM (PLK4/SAK; the second time): 29.8%
Structure (SMILES): COCCOc1cc2ncnc(Oc3ccc(NC(=O)c4c5n(n(-c6ccc(F)cc6)c4=O)CCCC5)cc3F)c2cc1OCCOC [DC621044, N-(4-((6,7-bis(2-methoxyethoxy)quinazolin-4-yl)oxy)-3-fluorophenyl)-1-(4-fluorophenyl)-2-oxo-1,2,4,5,6,7-hexahydropyrazolo[1,5-a]pyridine-3-formamide]
